Assay [1] concerns the target ketol-isomerase (Aspergillus fumigatus, UniProt E9R5E2). Kind of assay: nitro BT ketol-isomerase inhibition assay with crude A. fumigatus cell extract. In kind it is biochemical. The note with it: UDP-GlcNAc 0 to 10 mM. The protocol: Briefly, in this experiment, a series of ketol-isomerase reactions were analyzed in parallel, wherein each reaction mixture contained Fru-6-P, glutamine, and crude A. fumigatus cell extract (as described in Example 3). In addition, reactions also contained various concentrations of UDP-GlcNAc, ranging from 0 to 10 mM. Reactions were incubated at 37° C. for 60 minutes, after which time the ketol-isomerase reactions were terminated by heating at 70° C. for 15 min. However, the ketol-isomerase reaction can also be terminated by boiling for 5 minutes. In addition, the ketol-isomerase reaction can be clarified following the inactivation step by centrifugation or filtration.
Following arrest of the ketol-isomerase reaction, the necessary reagents for the nitro BT reaction were added to each reaction mixture, including glutamate dehydrogenase enzyme and molar excesses of β-NAD, PMS, and nitro BT. After incubation at 37° C. for 90 minutes, the color development was quantitated by measurement of OD585 nm. […]
In this experiment, 50 μL aliquots of a ketol-isomerase reaction mixture containing 10 mM Fru-6-P, 10 mM Gln, 0.3 mg/mL crude A. fumigatus extract, and various concentrations of UDP-GlcNAc were incubated at 37° C. for 60 minutes. […] After incubation at 37° C. for 90 minutes, the color development was quantitated by OD585 nm.

Assay [2] has as its target T1, ketol-isomerase (Candida albicans, UniProt P53704).
T1 construct: ketol-isomerase activity in crude cell extract of Candida albicans ATCC10261 yeast-like cells; host or cells: Candida albicans ATCC 10261 crude cell extract
The note with it: C. albicans strain ATCC No. 10261 crude cell extracts; Milewski et al., J. Biol. Chem., 274:4000-4008 [1999]; read-out: IC50, inhibition of ketol-isomerase activity; cited from earlier work.

Consider 1 compound from patent publication US6730495B2, “Methods for the identification of antimicrobial compounds” (Mycologics, Inc., priority 2001, dated 2004).

One may read the IC50 as the concentration at which inhibition is half-maximal.

T1 sequence (P53704 2-713): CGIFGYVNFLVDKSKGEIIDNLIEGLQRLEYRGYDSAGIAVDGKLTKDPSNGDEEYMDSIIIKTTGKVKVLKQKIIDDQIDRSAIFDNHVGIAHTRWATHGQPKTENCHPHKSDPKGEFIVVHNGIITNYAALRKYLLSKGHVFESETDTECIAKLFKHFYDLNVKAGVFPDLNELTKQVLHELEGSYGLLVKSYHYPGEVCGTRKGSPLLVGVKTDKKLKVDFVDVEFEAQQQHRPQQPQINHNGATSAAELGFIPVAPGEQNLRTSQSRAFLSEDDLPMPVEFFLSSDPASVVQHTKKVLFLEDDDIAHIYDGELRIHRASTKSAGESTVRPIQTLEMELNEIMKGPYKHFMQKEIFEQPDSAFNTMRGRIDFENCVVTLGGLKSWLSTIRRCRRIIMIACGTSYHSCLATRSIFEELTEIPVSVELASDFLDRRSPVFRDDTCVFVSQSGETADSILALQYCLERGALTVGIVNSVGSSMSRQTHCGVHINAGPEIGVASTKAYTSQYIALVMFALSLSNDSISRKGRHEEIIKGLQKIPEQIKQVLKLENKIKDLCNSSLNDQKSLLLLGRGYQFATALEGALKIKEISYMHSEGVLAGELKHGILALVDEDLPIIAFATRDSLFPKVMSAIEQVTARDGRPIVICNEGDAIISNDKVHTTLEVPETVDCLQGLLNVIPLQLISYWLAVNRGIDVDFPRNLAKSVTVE
ketol-isomerase (Aspergillus fumigatus, UniProt E9R5E2), sequence (E9R5E2 entry or part of it): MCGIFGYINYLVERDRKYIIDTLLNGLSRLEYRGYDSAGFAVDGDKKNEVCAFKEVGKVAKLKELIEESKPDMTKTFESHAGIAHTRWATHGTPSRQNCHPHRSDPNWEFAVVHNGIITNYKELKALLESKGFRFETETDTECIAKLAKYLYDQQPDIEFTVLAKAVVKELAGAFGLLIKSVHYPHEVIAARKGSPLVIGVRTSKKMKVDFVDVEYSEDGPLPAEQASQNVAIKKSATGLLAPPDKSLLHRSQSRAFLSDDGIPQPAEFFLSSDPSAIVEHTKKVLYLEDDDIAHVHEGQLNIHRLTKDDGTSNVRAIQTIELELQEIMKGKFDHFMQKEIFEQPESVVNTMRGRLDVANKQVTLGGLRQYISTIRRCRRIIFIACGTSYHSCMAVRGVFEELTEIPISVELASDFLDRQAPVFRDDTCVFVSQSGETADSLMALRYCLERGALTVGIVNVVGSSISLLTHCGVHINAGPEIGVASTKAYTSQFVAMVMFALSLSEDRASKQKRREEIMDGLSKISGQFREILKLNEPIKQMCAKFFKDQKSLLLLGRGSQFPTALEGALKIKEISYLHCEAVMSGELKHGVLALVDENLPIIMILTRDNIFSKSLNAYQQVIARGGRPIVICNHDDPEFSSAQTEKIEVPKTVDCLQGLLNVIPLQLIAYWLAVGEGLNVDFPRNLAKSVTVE

As to `CC(=O)N[C@H]1[C@@H](OP(=O)(O)OP(=O)(O)OC[C@H]2O[C@@H](n3ccc(=O)[nH]c3=O)[C@H](O)[C@@H]2O)O[C@H](CO)[C@@H](O)[C@@H]1O` [UDP-GlcNAc, UDP-N-acetylglucosamine], the “inhibition of ketol-isomerase activity in A. fumigatus crude extract (FIG. 5)” value in assay [1] is reported as “inhibited by UDP-GlcNAc in a dose-dependent manner”. The IC50 in assay [2] is 690 µM.
